From patent publication US20090074750A1, “REGULATOR OF BASAL CELLULAR CALCIUM CONCENTRATION AND METHODS OF USE” (priority 2007, published 2009)

Test system: HeLa cells
Test: YFP-Stim2 localization after thapsigargin ER Ca^2+ store depletion (confocal imaging)
Format: cell-based, human
Settings: 1 uM thapsigargin
Experimental: FIG. 3. Stim2 translocates to ER-PM junctions following ER Ca^2+ depletion. (A-C) YFP-Stim2 was expressed (˜24 hour) in HeLa (A), HUVEC, (B), and HEK293T (C) cells and confocal images were taken before and 2 minutes after 1 uM thapsigargin addition. […] HeLa cells were transfected for two days with ORAI1 siRNA and transfected for 24 hours with YFP-Stim2. Cells used in the analysis expressed YFP at 7.5 to 15 fold above background. N=10 sites.
Confocal imaging was performed using a Zeiss spinning disk confocal. Cells were imaged in extracellar buffer as described in the Ca^2+ measurements section.
We employed the YFP tagged Stim2 construct to investigate its localization and activation mechanism. Cells with submaximal YFP-Stim2 expression were selected to minimize expression artifacts. […] We observed the same YFP-Stim2 puncta formation in HeLa, Huvec, and HEK293T cell lines (FIGS. 3A-C). We then compared Stim1 and Stim2 localization by co-transfection of CFP-Stim1 and YFP-Stim2 followed by thapsigargin-induced depletion of ER Ca^2+ stores. CFP-Stim1 and YFP-Stim2 were co-localized in the same puncta that have previously been characterized as ER-PM junction sites (FIG. 3D) (Liou et al., 2005, Wu et al., 2006). […]

For `C/C=C(/C)C(=O)O[C@H]1C(C)=C2[C@H]([C@@H]1OC(=O)CCCCCCC)[C@@](C)(OC(C)=O)C[C@H](OC(=O)CCC)[C@@]1(O)[C@H]2OC(=O)[C@@]1(C)O` [thapsigargin], the “YFP-Stim2 translocation to PM localized puncta” value was “rapid translocation”.
